Measurements reported in US20180221435A1, “ITCH TREATMENT USING A COMBINATION OF NEUROKININ-1, GASTRIN RELEASING PEPTIDE, AND GLUTAMATE RECEPTOR ANTAGONISTS” (The Regents of the University of California, priority 2013, published 2018).
“Also recorded” adds a separate entry of the source.

How the values were obtained:
[1] = system: superficial dorsal horn neurons; assay: Baseline activity of superficial dorsal horn neurons before and after antagonist application; format: in vivo, mice; details: ± SEM
Protocol: (§1) The single-unit recording from the lumbar spinal cord was conducted as previously detailed [Akiyama T et al., Journal of neurophysiology 102(4):2176-2183 (2009); Akiyama T et al., The Journal of neuroscience: the official journal of the Society for Neuroscience 29(20):6691-6699 (2009)]. Anesthesia was induced by sodium pentobarbital (60 mg/kg ip) and maintained by supplemental injections (10-20 mg/kg/hr). A gravity-driven perfusion system allowed artificial cerebrospinal fluid (Krebs: 117 mM NaCl, 3.6 mM KCl, 2.5 mM CaCl2, 1.2 mM MgCl2, 1.2 mM NaH2PO4, 25 mM NaHCO3 and 11 mM glucose which was equilibrated with 95% 02 and 5% CO2 at 37° C.) to be superfused continually over the exposed lumbosacral spinal cord [Akiyama T et al., PloS one 6(7):e22665 (2011)]. A tungsten microelectrode recorded single-unit activity in the lumbar spinal cord. A chemical search strategy [Akiyama T et al., Journal of neurophysiology 102(4):2176-2183 2009; Akiyama T et al., The Journal of neuroscience: the official journal of the Society for Neuroscience 29(20):6691-6699 (2009)] was used to identify and isolate chloroquine-responsive units. Our search strategy was intended to maximize the chance of isolating a chloroquine-responsive neuron; it was assumed that such neurons either gave rise to ascending projections, or served as interneurons in segmental scratch-reflex circuitry, and no attempt was presently made to distinguish between these possibilities.
There was no significant effect of any of the antagonists on the baseline activity of superficial dorsal horn neurons that were subsequently show to respond to pruritogens. […] Values prior to, and after administration of each antagonist individually or in combination, are as follows. NK-1 antagonist L-733060: pre-application 0.88 Hz±0.23 (SEM), post-antagonist 0.72 Hz±0.19 (n=10). GRPR antagonist RC-3095: pre-application 0.54 Hz±0.54, post-antagonist: 0.53 Hz±0.53 (n=4). CNQX: pre-application 0.53 Hz±0.14, post-antagonist 0.64 Hz±0.21 (n=22). CNQX+L-733060: pre-application 0.52 Hz±0.17, post-antagonists 0.43 Hz±0.11 (n=26). CNQX+L-733060+RC-3095: pre-application 0.14 Hz±0.06, post-antagonists 0.17 Hz±0.06 (n=9).

[2] = system: superficial dorsal horn neurons; assay: In vivo single-unit recording, topical AITC-evoked firing, spinal superfusion of antagonists; design: species or system mice
Protocol: Akiyama T et al., The Journal of neuroscience: the official journal of the Society for Neuroscience 29(20):6691-6699 (2009)]. Anesthesia was induced by sodium pentobarbital (60 mg/kg ip) and maintained by supplemental injections (10-20 mg/kg/hr). […] A tungsten microelectrode recorded single-unit activity in the lumbar spinal cord. A chemical search strategy [Akiyama T et al., Journal of neurophysiology 102(4):2176-2183 2009; […] Following mechanical stimulation, histamine (50 μg) was injected id within the same receptive field at a different location via a separate injection cannula. Following the id histamine injection, we tested the effects of antagonists for the receptors of NK1, GRP, or AMPA/kainate in the same manner as described above for chloroquine. […] Following the AITC application, we tested the effects of the NK-1 receptor antagonist, the AMPA/kainate receptor antagonist, or a combination of both antagonists in the same manner as described above for chloroquine. Action potentials were recorded to a computer and counted using Chart software (AD Instruments, Colorado Springs Colo.) and Spike2 software (CED Instruments). […] Mean peak responses elicited by noxious pinch were compared by one way repeated-measures ANOVA followed by post-hoc Bonferroni test, with p<0.05 set as significant. At the end of each experiment, an electrolytic lesion was made at the spinal cord recording site.

[3] = system: superficial dorsal horn neurons; assay: In vivo single-unit recording, id chloroquine-evoked firing, spinal superfusion of antagonists; design: species or system mice
Protocol: as §1
Briefly, a small (˜0.25 μl) intradermal (id) microinjection of chloroquine (100 μg/μl) was made in the ventral hindpaw and a spontaneously active unit in the superficial lumbar dorsal horn (depth<300 um) was isolated. After the spontaneous activity had waned, chloroquine (1 μl, 100 μg/μl) was injected again at the same site through the same needle. […] Responses were usually recorded for at least 30 minutes, although in many cases unit firing declined over a shorter period.
Action potentials were recorded to a computer and counted using Chart software (AD Instruments, Colorado Springs Colo.) and Spike2 software (CED Instruments). Ongoing responses elicited by chloroquine, histamine, or AITC were averaged at 20-second intervals before, during and after the antagonist application, and compared by one way repeated-measures analysis of variance (ANOVA) followed by post-hoc Bonferroni test, with p<0.05 set as significant. The mean firing rate was calculated over a 20-second period 40 seconds after the antagonist application, and compared by one way ANOVA followed by post-hoc Bonferroni test, with p<0.05 set as significant. The criterion for decrease in ongoing firing was >70% decrease below the ongoing activity elicited by pruritogen over a 20-second period 40 seconds after the antagonist application. Mean peak responses elicited by noxious pinch were compared by one way repeated-measures ANOVA followed by post-hoc Bonferroni test, with p<0.05 set as significant. At the end of each experiment, an electrolytic lesion was made at the spinal cord recording site. The spinal cord was postfixed in 10% buffered formalin, cut in 50 μm frozen sections, and examined under the light microscope to identify lesions.

## N#Cc1cc2[nH]c(=O)c(=O)[nH]c2cc1[N+](=O)[O-] [CNQX]
[1]; averaged over 1 min following antagonist application
  baseline neuronal firing rate, post-antagonist: 0.64 Hz
[1]; averaged over 1 min prior to antagonist application
  baseline neuronal firing rate, pre-application: 0.53 Hz
[2]; topical AITC 75%
  AITC-evoked firing, effect of spinal superfusion: significantly reduced
[2]; topical AITC-evoked firing, superfusion 1 min, L-733060 200 μM, CNQX 100 μM
  Percentages of dorsal horn units that exhibited a decrease of 70% or more in firing rate following spinal superfusion of antagonists: 62% (8/15)
[3]; 40-60 s of superfusion, normalized firing, vs vehicle
  chloroquine-evoked firing compared to vehicle superfusion: significantly attenuated chloroquine-evoked firing
[3]; NS units, vs vehicle
  chloroquine-evoked firing in NS cells: significantly reduced
[3]; WDR units, vs vehicle
  chloroquine-evoked firing in WDR cells: significantly reduced
[3]; relative to chloroquine-evoked response prior to spinal superfusion
  chloroquine-evoked firing, effect of spinal superfusion: significantly attenuated during and after spinal superfusion; also recorded: reduced
